Data as given in patent US8367695B2, “Condensed tetrahydroquinoline derivative and use thereof for medical purposes” (Mitsubishi Tanabe Pharma Corporation, priority 2007, dated 2013).

Biological target: T1, Glucocorticoid Receptor (GR), CHO-GRE-Luc #35 cells (Cricetulus griseus, UniProt A0A9J7F8I2)
T1 sequence (A0A9J7F8I2 1-774): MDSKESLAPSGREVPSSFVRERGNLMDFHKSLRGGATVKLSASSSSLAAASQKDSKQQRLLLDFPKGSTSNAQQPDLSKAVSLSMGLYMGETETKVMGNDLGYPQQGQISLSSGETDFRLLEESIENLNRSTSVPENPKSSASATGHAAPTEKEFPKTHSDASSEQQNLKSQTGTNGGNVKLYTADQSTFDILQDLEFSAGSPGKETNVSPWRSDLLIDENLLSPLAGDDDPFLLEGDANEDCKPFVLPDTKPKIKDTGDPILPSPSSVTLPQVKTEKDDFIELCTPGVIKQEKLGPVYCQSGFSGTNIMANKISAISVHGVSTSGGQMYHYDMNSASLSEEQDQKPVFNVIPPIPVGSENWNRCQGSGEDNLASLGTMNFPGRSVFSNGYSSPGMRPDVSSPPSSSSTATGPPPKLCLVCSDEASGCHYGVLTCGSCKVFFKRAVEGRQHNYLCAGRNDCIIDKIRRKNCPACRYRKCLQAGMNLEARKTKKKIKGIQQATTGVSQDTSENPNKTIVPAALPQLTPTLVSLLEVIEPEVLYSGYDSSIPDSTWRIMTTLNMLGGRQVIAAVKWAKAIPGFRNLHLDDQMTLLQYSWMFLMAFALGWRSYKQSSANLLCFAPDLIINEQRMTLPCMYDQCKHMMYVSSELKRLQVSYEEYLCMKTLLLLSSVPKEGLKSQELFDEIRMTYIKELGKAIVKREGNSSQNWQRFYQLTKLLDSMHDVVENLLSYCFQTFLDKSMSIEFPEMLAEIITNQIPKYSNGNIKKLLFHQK
Assay: Glucocorticoid receptor function test using transgenic-recombinant cell (GRE-luciferase)
Assay type: cell-based
Settings: against GR stimulation with 10 nM dexamethasone, luciferase, about 6 hr; read-out: GR (IC50: nM)
Method: Glucocorticoid Receptor Function Test Using Transgenic-Recombinant Cell
Transgenic-recombinant cell was prepared by our company (Yokohama, JP). In Hokkaido System Science Co., Ltd., a cis-element wherein two glucocorticoid responsive elements (GRE) present in the […] promoter region of mouse were connected in tandem was produced on order from synthetic DNA. The gene was incorporated into a plasmid vector having a gene encoding luciferase enzyme. The plasmid was incorporated into CHO-K1 cell to give a transfectant. The expression cell (CHO-GRE-Luc #35) produces luciferase instead of the object protein under regulation of a transcription region involved in the expression of the object protein. That is, using the cell, a substance that controls production of the object protein can be screened for by replacing the substance with the luciferase activity. Fetal Bovine Serum (FBS), L-glutamine, penicillin-streptomycin solution, PBS(−), trypsin-EDTA solution, Opti-MEM medium and G418 were obtained from GIBCO (Auckland, N.Z.). A 10 cm dish and DMEM:HAM′S F12 medium were obtained from IWAKI (Chiba, JP). A 96 well white plate was obtained from Corning (Corning, N.Y.). Bright-Glo was obtained from Promega (Madison, US). Dexamethasone was obtained from Sigma Chemicals (St. Louis, Mo.).
CHO-GRE-Luc #35 cells were cultured for several days in a 10 cm dish in a medium (10% FBS/DMEM:HAM'S F12/2.5 mM L-glutamine/50 U/mL penicillin/25 μg/mL streptomycin/500 μg/mL G418). Sub-confluent cells were washed with a suitable amount of PBS(−), 1 ml of Trypsin-EDTA was added and the cells were stood still in a CO2 incubator at 37° C. for 3 min. A 10-fold amount of Opti-MEM medium was added to give a suspension, which was placed in a centrifugal tube and centrifuged (25° C., 1,000 rpm, 5 min). The supernatant was removed, and the cells were suspended in 5 ml of Opti-MEM medium and counted.
Storage solutions (5-20 mM) of the compound were prepared with DMSO. The storage solutions were diluted with DMSO to 1 mM, and further diluted 100-fold with distilled water or Opti-MEM medium to give solutions. The preparations were diluted with 1% DMSO solution to each concentration. As GR agonist, 10 nM dexamethasone was used. 0.2% DMSO was present at the time of the function assay.
The prepared compound solutions (evaluation compound solution or 1% DMSO solution 10 μL+dexamethasone or 1% DMSO solution 10 μL) were added to the plate. After the addition, the place was stood still in a CO2 incubator at 37° C. for about 6 hr. After the reaction, Bright-Glo was added at 20 μL/well, and the mixture was gently shaken and measured by a microplate luminometer (Turner Designs Instrument).
The IC50 value (nM) of the evaluation compound against GR stimulation with dexamethasone was calculated using Prism 3.0 as an analysis software and assuming one-site competition.

| IC50 [nM] | Structure (SMILES) |
| --- | --- |
| 35 | CC1(C)Nc2c(cc(-c3ccnc4ncccc34)c3occc23)C(C)(C)C1=O [Example 102, 2,2,4,4-tetramethyl-6-([1,8]naphthyridin-4-yl)-1,2,3,4-tetrahydro-furo[2,3-h]quinolin-3-one] |
| 128 | Cc1noc(C)c1-c1cc2c(c3c1C(=O)CC3)NC(C)(C)C(=O)C2(C)C [Example 104, 6-(3,5-dimethylisoxazol-4-yl)-2,2,4,4-tetramethyl-2,3,4,7,8,9-hexahydro-1H-cyclopenta[h]quinoline-3,7-dione] |
